We go through 64 molecules from patent publication US8796330B2, “Inhibitors of histone deacetylase and prodrugs thereof” (Methylgene Inc., priority 2006, dated 2014).

A value given as a limit tells only on which side of the number the result lay.

Chain of recombinant human HDAC-1 enzyme (rHDAC-1) (Q13547 whole entry): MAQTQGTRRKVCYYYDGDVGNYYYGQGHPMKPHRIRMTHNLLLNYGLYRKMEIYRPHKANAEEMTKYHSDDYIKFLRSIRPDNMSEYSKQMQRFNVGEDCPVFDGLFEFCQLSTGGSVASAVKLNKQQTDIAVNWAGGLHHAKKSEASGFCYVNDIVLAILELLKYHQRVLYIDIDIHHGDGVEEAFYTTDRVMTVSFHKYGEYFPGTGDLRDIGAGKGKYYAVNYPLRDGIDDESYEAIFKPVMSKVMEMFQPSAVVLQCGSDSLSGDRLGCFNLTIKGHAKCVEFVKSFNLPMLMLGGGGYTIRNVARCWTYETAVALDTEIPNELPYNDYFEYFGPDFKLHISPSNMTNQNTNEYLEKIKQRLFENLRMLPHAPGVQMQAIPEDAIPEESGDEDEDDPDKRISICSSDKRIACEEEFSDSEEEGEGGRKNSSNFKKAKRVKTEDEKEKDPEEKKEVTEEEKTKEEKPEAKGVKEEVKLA

For one experiment, the system named is histone deacetylase in nuclear extracts from H446 cells (pooled HDACs). The experiment can be described thus: Inhibition of histone deacetylase in H446 nuclear extracts ([3H]-acetylated histone substrate). It is filed as biochemical, human.
Conditions: not given
As to `O=C(NO)c1ccc(CCS(=O)(=O)c2ccccc2)cc1` [Compound 73, N-Hydroxy-4-(2-benzenesulfonyl)-ethyl benzamide], the “pooled HDACs percent inhibition” value amounted to 35% @ 20 μM.

The experiment is the same for the next values; noted with them: H446 nuclear extract.
By IC50 is commonly meant the concentration that inhibits the measured activity by half. For `O=C(NO)c1ccc(CCc2ccccc2)cc1` [Compound 150], the IC50 was determined as 10 µM.
On the same count and under the same terms, under `O=C(CCCc1ccc(CCCCc2ccccc2)cc1)NO` [Compound 156] stands 5 µM; under `O=C(Cc1ccc(NS(=O)(=O)c2cccc3cccnc23)cc1)NO` [Compound 18, 2-[4-(8-quinolinesulfonylamino)-phenyl]-N-hydroxy-acetamide], 160 µM.
Same read-out and setting: under `O=C(NO)c1ccc(CCCS(=O)(=O)c2ccccc2)cc1` [Compound 148] stands 5 µM; under `O=C(Cc1ccc(NS(=O)(=O)c2ccccc2[N+](=O)[O-])cc1)NO` [Compound 7, 2-[4-(2-nitrobenzenesulfonylamino)-phenyl]-N-hydroxy-acetamide], 70 µM.
The molecule `O=C(/C=C/c1ccc(NS(=O)(=O)c2ccc(-c3cccs3)s2)cc1)NO` [Compound 103] had an IC50 of 0.7 µM.
Consider `CN(C)c1cccc2c(S(=O)(=O)Nc3ccc(/C=C/C(=O)NO)cc3)cccc12` [Compound 97], for which the half-maximal inhibitory concentration (IC50) worked out at 0.8 µM.
Molecule `O=C(NO)c1ccc(CCCCc2ccccc2)cc1` [Compound 61, N-Hydroxy-4-(4-phenylbutyl)-benzamide] displayed an IC50 of 4 µM.
Still for that read-out and setting: under `O=C(/C=C/c1ccc(NS(=O)(=O)c2cccs2)cc1)NO` [Compound 87] stands 3 µM; under `O=C(Cc1ccc(NS(=O)(=O)c2cc(Cl)ccc2Cl)cc1)NO` [Compound 8, 2-[4-(2,5-dichlorobenzenesulfonylamino)-phenyl]-N-hydroxy-acetamide], 15 µM; under `O=C(/C=C/c1ccc(NS(=O)(=O)c2cccc3ccccc23)cc1)NO` [Compound 93], 0.35 µM.
As for `Cc1ccc(S(=O)(=O)Nc2ccc(CC(=O)NO)cc2)cc1` [Compound 9, 2-[4-(4-methylbenzenesulfonylamino)-phenyl]-N-hydroxy-acetamide], the IC50 is 9 µM.
Regarding `O=C(Cc1ccc(NS(=O)(=O)c2ccc(Cl)c(Cl)c2)cc1)NO` [Compound 15, 2-[4-(3,4-dichlorobenzenesulfonylamino)-phenyl]-N-hydroxy-acetamide], the IC50 amounted to 25 µM.
The same measure, in the same setting: under `O=C(Cc1ccc(NS(=O)(=O)c2cc3ccccc3s2)cc1)NO` [Compound 4] stands 7 µM; under `O=C(/C=C/C#Cc1ccc(NS(=O)(=O)c2ccccc2)cc1)NO` [Compound 32, N-Hydroxy-5-[4-(benzenesulfonylamino)-phenyl]-4-yn-2-pentanamide], below 20 µM.
The molecule `O=C(/C=C/c1ccc(NS(=O)(=O)c2cccc3cccnc23)cc1)NO` [Compound 99] registered an IC50 of 0.9 µM.
On the same count and under the same terms, under `O=C(CCCCc1ccc(NS(=O)(=O)c2ccccc2)cc1)NO` [Compound 34] stands 2 µM; under `O=C(/C=C/c1ccc(C(=O)NO)cc1)c1ccccc1` [Compound 45, N-Hydroxy-4-(3-oxo-3-phenylpropenyl)-benzamide], 4 µM.
In turn, `O=C(/C=C/c1ccc(NS(=O)(=O)c2ccc3oc4ccccc4c3c2)cc1)NO` [Compound 101] showed a half-inhibitory concentration (IC50) of 0.3 µM.
`O=C(Cc1ccc(CCCS(=O)(=O)c2ccccc2)cc1)NO` [Compound 158] showed a half-inhibitory concentration (IC50) above 20 µM.
For `O=C(/C=C/c1ccc(NS(=O)(=O)c2cc(Cl)cc(Cl)c2O)cc1)NO` [Compound 111], the IC50 is 0.4 µM.
In turn, `O=C(/C=C/c1ccc(NC(=O)Nc2ccc(Cl)cc2)cc1)NO` [Compound 145] yielded an IC50 of 3.8 µM.
For `O=C(/C=C/c1ccc(CC(O)c2ccccc2)o1)NO` (centres unmarked) [Compound 136], the IC50 came to 9 µM.
The molecule `O=C(/C=C/c1ccc(NC(=O)Nc2cccc3ccccc23)cc1)NO` [Compound 146] yielded an IC50 of 2.9 µM.
Still for that read-out and setting: under `O=C(Cc1ccc(CCCc2ccccc2)cc1)NO` [Compound 175] stands above 2 µM; under `O=C(NO)c1ccc(CCCCCc2ccccc2)cc1` [Compound 153], 5 µM.
`O=C(CCc1ccc(C(=O)NO)cc1)c1ccccc1` [Compound 50, N-Hydroxy-4-(3-oxo-3-phenylpropyl)-benzamide] had an IC50 of 5 µM.
In turn, `O=C(NO)c1ccc(NS(=O)(=O)c2cc3ccccc3s2)cc1` [Compound 13] displayed a half-maximal inhibitory concentration (IC50) of 0.9 µM.
Regarding `O=C(NO)c1ccc(/C=C/c2ccccc2)cc1` [Compound 151], it took 7.5 µM to reach half-maximal inhibition (IC50).
Consider `CN(C)c1ccc(CCc2ccc(C(=O)NO)s2)cc1` [Compound 171], for which the IC50 was found to be 20 µM.
For `CN(C)c1ccc(CCc2ccc(C(=O)NO)cc2)cc1` [Compound 172], the IC50 is 10 µM.
Molecule `COc1ccc(NC(=O)Nc2ccc(/C=C/C(=O)NO)cc2)cc1OC` [Compound 147] came in with an IC50 of 1.9 µM.
`O=C(CCc1ccc(CCc2ccccc2)cc1)NO` [Compound 157] had an IC50 of 6 µM.
`O=C(CC(O)c1ccc(C(=O)NO)cc1)c1ccccc1` (centres unmarked) [Compound 53, N-Hydroxy-4-(3-oxo-3-phenyl-1-hydroxypropyl)-benzamide] had an IC50 of 25 µM.
Take `O=C(Cc1ccc(NS(=O)(=O)c2cccc(C(F)(F)F)c2)cc1)NO` [Compound 10, 2-[4-(3-trifluoromethylbenzenesulfonylamino)-phenyl]-N-hydroxy acetamide]: inhibition was half-maximal at 30 µM (IC50).
Turning to `O=C(Cc1ccc(CCCCc2ccccc2)cc1)NO` [Compound 174, N-hydroxy-2-(4-(4-phenylbutyl)phenyl)acetamide], the half-maximal inhibitory concentration (IC50) is above 20 µM.
As to `O=C(CCCCc1cccc(NS(=O)(=O)c2ccccc2)c1)NO` [Compound 26], the IC50 is below 20 µM.
For `O=C(Cc1ccc(NS(=O)(=O)c2ccc(Br)cc2)cc1)NO` [Compound 19, 2-[4-(4-bromobenzenesulfonylamino)-phenyl]-N-hydroxy-acetamide], the IC50 was found to be 20 µM.
The molecule `O=C(NO)c1ccc(CCCc2ccccc2)cc1` [Compound 56, N-Hydroxy-4-(3-phenylpropyl)-benzamide] displayed an IC50 of 15 µM.

The same experiment, now with this note: H446 nuclear extract; @ 1 μM.
Regarding `O=C(/C=C/c1ccc(NS(=O)(=O)c2ccc(Cl)c(Cl)c2)cc1)NO` [Compound 109], the “pooled HDACs percent inhibition” value stood at 32% @ 1 μM.

Staying with this experiment, now noted: H446 nuclear extract; @ 5 μM.
Regarding `O=C(/C=C/c1ccc(NS(=O)(=O)c2ccccn2)cc1)NO` [Compound 96], the “pooled HDACs percent inhibition” value is 33% @ 5 μM.
Still for that read-out and setting: under `O=C(/C=C/c1ccc(NS(=O)(=O)c2cccnc2)cc1)NO` [Compound 104] stands 21% @ 5 μM.

Staying with this experiment, now noted: H446 nuclear extract; @ 20 μM.
On to `O=C(CCCc1ccc(C(=O)NO)cc1)c1ccccc1` [Compound 177], for which the “pooled HDACs percent inhibition” value is listed as 10% @ 20 μM.
Regarding `Nc1ccccc1NC(=O)/C=C/c1ccc(CC(=O)c2ccccc2)o1` [Compound 139], the “pooled HDACs percent inhibition” value turned out to be 44% @ 20 μM.
The same measure, in the same setting: under `O=C(CCc1ccc(CC(=O)c2ccccc2)o1)NO` [Compound 143] stands 55% @ 20 μM.
For the molecule `O=C(NO)c1cccc(CCc2ccccc2)c1` [Compound 68, N-Hydroxy-3-(2-phenylethyl)-benzamide], the “pooled HDACs percent inhibition” value came out at 3% @ 20 μM.
Still for that read-out and setting: under `O=C(CCCc1ccc(CCCc2ccccc2)cc1)NO` [Compound 155] stands 39% @ 20 μM.
Same read-out and setting: under `O=C(NO)c1ccc(CCCC(O)c2ccc3ccccc3c2)cc1` (centres unmarked) [Compound 149] stands 8% @ 20 μM.
Still for that read-out and setting: under `O=C(CCC1CCC(CC(=O)c2ccccc2)O1)NO` (centres unmarked) [Compound 176] stands 20% @ 20 μM.
For `Nc1ccccc1NC(=O)/C=C/C#Cc1cccc(NS(=O)(=O)c2ccccc2)c1` [Compound 168], the “pooled HDACs percent inhibition” value worked out at 0% @ 20 μM.
Consider `CN(C)c1ccc(CCc2ccccc2C(=O)NO)cc1` [Compound 173], for which the “pooled HDACs percent inhibition” value is listed as 35% @ 20 μM.
On to `Nc1ccccc1NC(=O)CCc1ccc(CC(=O)c2ccccc2)o1` [Compound 144], for which the “pooled HDACs percent inhibition” value came out at 6% @ 20 μM.
Same read-out and setting: under `O=C(NO)c1ccc(CC[S+]([O-])c2ccccc2)cc1` (centres unmarked) [Compound 71, N-Hydroxy-4-(2-benzenesulfoxide)-ethyl benzamide] stands 44% @ 20 μM.

Staying with this experiment, now noted: H446 nuclear extract; @ 100 μM.
Take `O=C(NO)c1cccc(CCCc2ccccc2)c1` [Compound 64, N-Hydroxy-3-(3-phenylpropyl)-benzamide]: the “pooled HDACs percent inhibition” value is 12% @ 100 μM.
Consider `O=C(Cc1ccc(NS(=O)(=O)c2cccc([N+](=O)[O-])c2)cc1)NO` [Compound 17, 2-[4-(3-nitrobenzenesulfonylamino)-phenyl]-N-hydroxy-acetamide], for which the “pooled HDACs percent inhibition” value was 47% 100 μM.
Take `O=C(Cc1cccc(NS(=O)(=O)c2cc3ccccc3s2)c1)NO` [Compound 14]: the “pooled HDACs percent inhibition” value amounted to 36% @ 100 μM.
In the case of `O=C(Cc1ccc(NS(=O)(=O)c2cccs2)cc1)NO` [Compound 16, 2-[4-(2-Thiophenesulfonylamino)-phenyl]-N-hydroxy-acetamide], the “pooled HDACs percent inhibition” value is recorded as 38% 100 μM.

A further experiment addresses recombinant human HDAC-1 enzyme (rHDAC-1) (Homo sapiens (Human), UniProt Q13547). The experiment can be described thus: Inhibition of recombinant human HDAC-1 ([3H]-acetylated histone substrate). It is filed as biochemical. The following applies: Table 4, recombinant human HDAC-1.
Take `Nc1ccccc1NC(=O)C#Cc1ccc(NS(=O)(=O)c2ccc(-c3ccccc3)cc2)cc1` [Compound 129]: the IC50 was 3 µM.
For the molecule `O=C(/C=C/c1ccc(NS(=O)(=O)c2ccc(Cl)c(Cl)c2)cc1)NO` [Compound 109], the concentration for half-maximal inhibition (IC50) was 0.12 µM.
Take `COc1ccc(NS(=O)(=O)c2ccc(/C=C/C(=O)NO)cc2)cc1OC` [Compound 98]: the IC50 was determined as 0.06 µM.
The same measure, in the same setting: under `O=C(/C=C/c1ccc(NS(=O)(=O)c2ccc(-c3cccs3)s2)cc1)NO` [Compound 103] stands 0.05 µM.
Take `CN(C)c1cccc2c(S(=O)(=O)Nc3ccc(/C=C/C(=O)NO)cc3)cccc12` [Compound 97]: the IC50 was determined as 0.28 µM.
Take `O=C(/C=C/c1ccc(NS(=O)(=O)c2cccs2)cc1)NO` [Compound 87]: the IC50 was determined as 0.6 µM.
With `O=C(CCCCc1ccc(NS(=O)(=O)c2ccccc2)cc1)NO` [Compound 34], the IC50 is 0.3 µM.
For `O=C(/C=C/c1ccc(NS(=O)(=O)c2ccc3oc4ccccc4c3c2)cc1)NO` [Compound 101], the IC50 is 0.04 µM.
Same read-out and setting: under `Nc1ccccc1NC(=O)/C=C/c1ccc(NS(=O)(=O)c2ccc(-c3ccccc3)cc2)cc1` [Compound 123] stands 1 µM; under `O=C(/C=C/c1ccc(NS(=O)(=O)c2cc(Cl)cc(Cl)c2O)cc1)NO` [Compound 111], 0.095 µM.
On to `O=C(CCc1ccc(CCCc2ccccc2)cc1)NO` [Compound 77, N-Hydroxy-3-[4-(3-phenylpropyl)-phenyl]-propanamide], for which the concentration for half-maximal inhibition (IC50) stood at 0.65 µM.
On the same count and under the same terms, under `COc1ccc(S(=O)(=O)Nc2ccc(/C=C/C(=O)Nc3ccccc3N)cc2)cc1OC` [Compound 116] stands 4 µM; under `O=C(/C=C/c1ccc(S(=O)(=O)Nc2ccc(-c3ccccc3)cc2)cc1)NO` [Compound 162], 0.04 µM.
